# From ChEMBL document CHEMBL3822440, “Semi-synthesis and antiproliferative evaluation of PEGylated pentacyclic triterpenes” (Eur J Med Chem, 2016)
# Activity calls are given as the source filed them. The rule behind the calls is not given here.
# Tests used:
# [1] = system: HepG2; experiment: Induction of apoptosis in human HepG2 cells assessed as cell shrinkage at cytotoxic IC50 after 72 hrs by Hoechst staining based fluorescence microscopic analysis; format: functional
# [2] = system: HT-29; experiment: Induction of apoptosis in human HT-29 cells assessed as bubble shaped region in cell surface at cytotoxic IC50 after 72 hrs by Hoechst staining based fluorescence microscopic analysis; format: functional
# [3] = system: HepG2; experiment: Potency index, ratio of maslinic acid IC50 to compound IC50 for human HepG2 cells; format: functional
# [4] = system: HepG2; experiment: Induction of apoptosis in human HepG2 cells assessed as nucleus containing nicked DNA at cytotoxic IC50 after 72 hrs by Hoechst staining based fluorescence microscopic analysis; format: functional, cell-based
# [5] = Cell cycle arrest in mouse B16F10 cells assessed as accumulation at G0/G1 phase at cytotoxic IC50 after 72 hrs by propidium iodide staining based flow cytometry (reference value: 50.69 +/- 0.61%); format: functional, B16-F10
# [6] = system: HepG2; experiment: Induction of apoptosis in human HepG2 cells assessed as loss of nuclear architecture at cytotoxic IC50 after 72 hrs by Hoechst staining based fluorescence microscopic analysis; format: functional, cell-based
# [7] = system: HepG2; experiment: Induction of apoptosis in human HepG2 cells assessed as chromatin condensation at cytotoxic IC50 after 72 hrs by Hoechst staining based fluorescence microscopic analysis; format: functional, cell-based
# [8] = system: HepG2; experiment: Induction of apoptosis in human HepG2 cells assessed as disruption of cell membrane integrity at cytotoxic IC50 after 72 hrs by Hoechst staining based fluorescence microscopic analysis; format: functional
# [9] = system: HT-29; experiment: Cell cycle arrest in human HT-29 cells assessed as accumulation at S phase at cytotoxic IC50 after 72 hrs by propidium iodide staining based flow cytometry (reference value: 48.31 +/- 1.49%); format: functional
# [10] = system: HepG2; experiment: Induction of apoptosis in human HepG2 cells assessed as late apoptotic cells at cytotoxic IC50 after 72 hrs by Annexin V-FITC/propidium iodide staining based flow cytometry relative to control; format: functional
# [11] = system: HT-29; experiment: Induction of apoptosis in human HT-29 cells assessed as disruption of cell membrane integrity at cytotoxic IC50 after 72 hrs by Hoechst staining based fluorescence microscopic analysis; format: functional
# [12] = system: HT-29; experiment: Cell cycle arrest in human HT-29 cells assessed as accumulation at G2/M phase at cytotoxic IC50 after 72 hrs by propidium iodide staining based flow cytometry (reference value: 6.23 +/- 1.7%); format: functional
# [13] = Induction of apoptosis in mouse B16F10 cells assessed as necrotic cells at cytotoxic IC50 after 72 hrs by Annexin V-FITC/propidium iodide staining based flow cytometry (reference value: 0.75 +/- 0.07%); format: functional, B16-F10
# [14] = Cell cycle arrest in mouse B16F10 cells assessed as accumulation at G2/M phase at cytotoxic IC50 after 72 hrs by propidium iodide staining based flow cytometry (reference value: 1.01 +/- 0.13%); format: functional, B16-F10
# [15] = system: HepG2; experiment: Cell cycle arrest in human HepG2 cells assessed as accumulation at G0/G1 phase at cytotoxic IC50 after 72 hrs by propidium iodide staining based flow cytometry (reference value: 39.41 +/- 1.56%); format: functional
# [16] = system: HT-29; experiment: Cell cycle arrest in human HT-29 cells assessed as accumulation at G0/G1 phase at cytotoxic IC50 after 72 hrs by propidium iodide staining based flow cytometry (reference value: 55.18 +/- 0.22%); format: functional
# [17] = system: HepG2; experiment: Cell cycle arrest in human HepG2 cells assessed as accumulation at G2/M phase at cytotoxic IC50 after 72 hrs by propidium iodide staining based flow cytometry (reference value: 8.47 +/- 2.55%); format: functional
# [18] = system: HT-29; experiment: Induction of apoptosis in human HT-29 cells assessed as cell shrinkage at cytotoxic IC50 after 72 hrs by Hoechst staining based fluorescence microscopic analysis; format: functional
# [19] = system: B16-F10; experiment: Induction of apoptosis in mouse B16F10 cells assessed as nucleus containing nicked DNA at cytotoxic IC50 after 72 hrs by Hoechst staining based fluorescence microscopic analysis; format: functional, cell-based
# [20] = system: HepG2; experiment: Induction of apoptosis in human HepG2 cells assessed as necrotic cells at cytotoxic IC50 after 72 hrs by Annexin V-FITC/propidium iodide staining based flow cytometry (reference value: 0.1 +/- 0.01%); format: functional
# [21] = system: HepG2; experiment: Disruption of mitochondrial membrane potential in human HepG2 cells assessed as rhodamine123 negative cells at cytotoxic IC50 after 72 hrs by propidium iodide staining based fluorescence spectroscopic analysis (reference value: 11.7 +/- 6.8%); format: functional
# [22] = system: HT-29; experiment: Disruption of mitochondrial membrane potential in human HT-29 cells assessed as rhodamine123 positive cells at cytotoxic IC50 after 72 hrs by propidium iodide staining based fluorescence spectroscopic analysis (reference value: 94.25 +/- 0.35%); format: functional
# [23] = system: B16-F10; experiment: Induction of apoptosis in mouse B16F10 cells assessed as cell shrinkage at cytotoxic IC50 after 72 hrs by Hoechst staining based fluorescence microscopic analysis; format: functional
# [24] = system: HT-29; experiment: Induction of apoptosis in human HT-29 cells assessed as early apoptotic cells at cytotoxic IC50 after 72 hrs by Annexin V-FITC/propidium iodide staining based flow cytometry (reference value: 1.65 +/- 0.07%); format: functional
# [25] = system: B16-F10; experiment: Potency index, ratio of maslinic acid IC50 to compound IC50 for mouse B16F10 cells; format: functional
# [26] = system: HT-29; experiment: Induction of apoptosis in human HT-29 cells assessed as loss of nuclear architecture at cytotoxic IC50 after 72 hrs by Hoechst staining based fluorescence microscopic analysis; format: functional, cell-based
# [27] = system: HepG2; experiment: Disruption of mitochondrial membrane potential in human HepG2 cells assessed as rhodamine123 positive cells at cytotoxic IC50 after 72 hrs by propidium iodide staining based fluorescence spectroscopic analysis (reference value: 88.3 +/- 8.87%); format: functional
# [28] = system: HT-29; experiment: Potency index, ratio of maslinic acid IC50 to compound IC50 for human HT-29 cells; format: functional
# [29] = Disruption of mitochondrial membrane potential in mouse B16F10 cells assessed as rhodamine123 negative cells at cytotoxic IC50 after 72 hrs by propidium iodide staining based fluorescence spectroscopic analysis (reference value: 4.45 +/- 0.64%); format: functional, B16-F10
# [30] = system: HepG2; experiment: Induction of apoptosis in human HepG2 cells assessed as bubble shaped region in cell surface at cytotoxic IC50 after 72 hrs by Hoechst staining based fluorescence microscopic analysis; format: functional
# [31] = system: HepG2; experiment: Cytotoxicity against human HepG2 cells assessed as growth inhibition after 72 hrs by MTT assay; format: functional, cell-based; settings: HepG2, 72 h
# [32] = system: HT-29; experiment: Induction of apoptosis in human HT-29 cells assessed as nucleus containing nicked DNA at cytotoxic IC50 after 72 hrs by Hoechst staining based fluorescence microscopic analysis; format: functional, cell-based
# [33] = system: HT-29; experiment: Induction of apoptosis in human HT-29 cells assessed as late apoptotic cells at cytotoxic IC50 after 72 hrs by Annexin V-FITC/propidium iodide staining based flow cytometry (reference value: 0.65 +/- 0.35%); format: functional
# [34] = system: HT-29; experiment: Induction of apoptosis in human HT-29 cells assessed as chromatin condensation at cytotoxic IC50 after 72 hrs by Hoechst staining based fluorescence microscopic analysis; format: functional, cell-based
# [35] = system: B16-F10; experiment: Induction of apoptosis in mouse B16F10 cells assessed as disruption of cell membrane integrity at cytotoxic IC50 after 72 hrs by Hoechst staining based fluorescence microscopic analysis; format: functional
# [36] = system: B16-F10; experiment: Induction of apoptosis in mouse B16F10 cells assessed as bubble shaped region in cell surface at cytotoxic IC50 after 72 hrs by Hoechst staining based fluorescence microscopic analysis; format: functional
SMILES,Activity [1],Activity [2],Ratio IC50 [3],Activity [4],Activity [5] [%],Activity [6],Activity [7],Activity [8],Activity [9] [%],Activity [10] [%],Activity [11],Activity [12] [%],Activity [13] [%],Activity [14] [%],Activity [15] [%],Activity [16] [%],Activity [17] [%],Activity [18],Activity [19],Activity [20] [%],also measured
COCCOCCOCC(=O)O[C@@H]1C[C@]2(C)[C@H]3CC=C4[C@@H]5CC(C)(C)CC[C@]5(C(=O)O)CC[C@@]4(C)[C@]3(C)CC[C@H]2C(C)(C)[C@H]1OC(=O)COCCOCCOC,Active,Active,1.7,Active,87.93,Active,Active,Active,4.97,29.1,Active,0.76,0,0,58.19,94.28,15.45,Active,Active,0.4,Activity [21]: 43.2%; Activity [22]: 94.3%; Activity [23]: Active; Activity [24]: 40.1%; Ratio IC50 [25]: 0.7; Activity [26]: Active; Activity [27]: 56.7%; Ratio IC50 [28]: 0.8; Activity [29]: 24.9%; Activity [30]: Active; IC50 [31]: 59.9 µM; Activity [32]: Active; Activity [33]: 0.15%; Activity [34]: Active; Activity [35]: Active; Activity [36]: Active
CC1(C)CC[C@]2(C(=O)NCCCOCCOCCOCCCN)CC[C@]3(C)C(=CC[C@@H]4[C@@]5(C)C[C@@H](O)[C@H](O)C(C)(C)[C@@H]5CC[C@]43C)[C@@H]2C1,Active,Active,12.9,Active,66.66,Active,Active,Active,7.12,33.05,Active,13.1,0.2,10.91,40.22,79.78,9.34,Active,Active,0.4,Activity [21]: 40.85%; Activity [22]: 63.1%; Activity [23]: Active; Activity [24]: 31.25%; Ratio IC50 [25]: 3.2; Activity [26]: Active; Activity [27]: 59.2%; Ratio IC50 [28]: 2.7; Activity [29]: 51.95%; Activity [30]: Active; IC50 [31]: 7.68 µM; Activity [32]: Active; Activity [33]: 7.6%; Activity [34]: Active; Activity [35]: Active; Activity [36]: Active
